Read-outs that look alike come from different tables or passages of the source.
Experiments:
[1] = test system: E. coli (ATCC #11229); test: Biocidal efficacy, AOAC Official Method 965.13, gram-negative bacteria; format: cell-based
Experimental: (§1) The biocidal efficacy of dissolved BCDMH was compared to sodium hypochlorite using AOAC Official Method 965.13 (1995 Edition)--Disinfectant (Water) for Swimming Pools against the gram-negative bacteria E. coli (ATCC #11229) and the gram-positive bacteria Strep. faecalis (ATCC #6569). The desired nominal biocide dosage (0, 0.1, 0.3, 0.6 or 0.9 mg/l total halogen expressed as chlorine) was established by dilution from freshly prepared (filtered) standardized stock solutions of either BCDMH Powder or NaOCl into phosphate buffered water (approximate pH of 7.5 as described in the method). An inoculum was standardized to yield 2×10^8 organisms per ml. One ml of the standardized inoculum was mixed into 199 ml of phosphate buffered water containing the desired dosage of biocide. One-ml aliquots were removed at specific times (30, 60, 120 and 180 seconds after inoculum addition) and added, with mixing, into separate tubes containing 9 ml of thiosulfate solution to neutralize the oxidizing halogen. Five 1 ml aliquots of from each neutralization tube were then added and mixed into five separate tubes each containing 9 ml of subculture broth. After 48 hours of incubation, these were examined to determine growth or no growth in the subculture medium. […]

[2] = test system: Strep. faecalis (ATCC #6569); test: Biocidal efficacy, AOAC Official Method 965.13, gram-positive bacteria; format: cell-based
Experimental: as §1

[3] = test system: bacteria; test: Biocidal efficacy comparison, both bacteria (in words); format: cell-based, E. coli; Strep. faecalis; settings: compared with NaOCl, predissolved BCDMH or other Examples
Experimental: The biocidal efficacy of dissolved BCDMH was compared to sodium hypochlorite using AOAC Official Method 965.13 (1995 Edition)--Disinfectant (Water) for Swimming Pools against the gram-negative bacteria E. coli (ATCC #11229) and the gram-positive bacteria Strep. faecalis (ATCC #6569). The desired nominal biocide dosage (0, 0.1, 0.3, 0.6 or 0.9 mg/l total halogen expressed as chlorine) was established by dilution from freshly prepared (filtered) standardized stock solutions of either BCDMH Powder or NaOCl into phosphate buffered water (approximate pH of 7.5 as described in the method). An inoculum was standardized to yield 2×10^8 organisms per ml. One ml of the standardized inoculum was mixed into 199 ml of phosphate buffered water containing the desired dosage of biocide. One-ml aliquots were removed at specific times (30, 60, 120 and 180 seconds after inoculum addition) and added, with mixing, into separate tubes containing 9 ml of thiosulfate solution to neutralize the oxidizing halogen. Five 1 ml aliquots of from each neutralization tube were then added and mixed into five separate tubes each containing 9 ml of subculture broth. After 48 hours of incubation, these were examined to determine growth or no growth in the subculture medium.
The efficacy of this preparation was tested as described in Example 1 except that no stock solution of the preparation was made. […]

[4] = cited from earlier work
[5] = cited from earlier work; for hydrolytic stability (in words): background
[6] = background; cited from earlier work
[7] = 0.1 ppm total halogen as Cl2, 30 sec
[8] = 0.1 ppm total halogen as Cl2, 60 sec
[9] = 0.1 ppm total halogen as Cl2, 120 sec
[10] = 0.1 ppm total halogen as Cl2, 180 sec
[11] = 0.3 ppm total halogen as Cl2, 30 sec
[12] = 0.3 ppm total halogen as Cl2, 60 sec
[13] = 0.3 ppm total halogen as Cl2, 120 sec
[14] = 0.3 ppm total halogen as Cl2, 180 sec
[15] = 0.6 ppm total halogen as Cl2, 30 sec
[16] = 0.6 ppm total halogen as Cl2, 60 sec
[17] = 0.6 ppm total halogen as Cl2, 120 sec
[18] = 0.6 ppm total halogen as Cl2, 180 sec
[19] = 0.9 ppm total halogen as Cl2, 30 sec
[20] = 0.9 ppm total halogen as Cl2, 60 sec
[21] = 0.9 ppm total halogen as Cl2, 120 sec
[22] = 0.9 ppm total halogen as Cl2, 180 sec

Row | SMILES | Number of Tubes Exhibiting Growth [1, 7] | Number of Tubes Exhibiting Growth [1, 8] | Number of Tubes Exhibiting Growth [1, 9] | Number of Tubes Exhibiting Growth [1, 10] | Number of Tubes Exhibiting Growth [1, 11] | Number of Tubes Exhibiting Growth [1, 12] | Number of Tubes Exhibiting Growth [1, 13] | Number of Tubes Exhibiting Growth [1, 14] | Number of Tubes Exhibiting Growth [1, 15] | Number of Tubes Exhibiting Growth [1, 16] | Number of Tubes Exhibiting Growth [1, 17] | Number of Tubes Exhibiting Growth [1, 18] | Number of Tubes Exhibiting Growth [2, 7] | Number of Tubes Exhibiting Growth [2, 8] | Number of Tubes Exhibiting Growth [2, 9] | Number of Tubes Exhibiting Growth [2, 10] | Number of Tubes Exhibiting Growth [2, 11] | Number of Tubes Exhibiting Growth [2, 12] | Number of Tubes Exhibiting Growth [2, 13] | Number of Tubes Exhibiting Growth [2, 14] | also measured
1 | CC1(C)C(=O)N(Cl)C(=O)N1Br [BCDMH, bromochlorodimethylhydantoin] | 5 Tubes (Out of 5) | 5 Tubes (Out of 5) | 5 Tubes (Out of 5) | 5 Tubes (Out of 5) | 5 Tubes (Out of 5) | 5 Tubes (Out of 5) | 5 Tubes (Out of 5) | 5 Tubes (Out of 5) | 0 Tubes (Out of 5) | 0 Tubes (Out of 5) | 0 Tubes (Out of 5) | 0 Tubes (Out of 5) | 5 Tubes (Out of 5) | 5 Tubes (Out of 5) | 5 Tubes (Out of 5) | 5 Tubes (Out of 5) | 5 Tubes (Out of 5) | 5 Tubes (Out of 5) | 4 Tubes (Out of 5) | 1 Tubes (Out of 5) | Number of Tubes Exhibiting Growth [1, 19]: 0 Tubes (Out of 5); Number of Tubes Exhibiting Growth [1, 20]: 0 Tubes (Out of 5); Number of Tubes Exhibiting Growth [1, 21]: 0 Tubes (Out of 5); Number of Tubes Exhibiting Growth [1, 22]: 0 Tubes (Out of 5); Number of Tubes Exhibiting Growth [2, 15]: 0 Tubes (Out of 5); Number of Tubes Exhibiting Growth [2, 16]: 0 Tubes (Out of 5); Number of Tubes Exhibiting Growth [2, 17]: 0 Tubes (Out of 5); Number of Tubes Exhibiting Growth [2, 18]: 0 Tubes (Out of 5); Number of Tubes Exhibiting Growth [2, 19]: 0 Tubes (Out of 5); Number of Tubes Exhibiting Growth [2, 20]: 0 Tubes (Out of 5); Number of Tubes Exhibiting Growth [2, 21]: 0 Tubes (Out of 5); Number of Tubes Exhibiting Growth [2, 22]: 0 Tubes (Out of 5); biocidal efficacy (in words) [3]: approximately the same; water solubility ([4]; 20° C.): approximately 1,500 mg/liter; hydrolytic stability (in words) [5]: not hydrolytically stable; dissolving behaviour (in words) [6]: dissolves slowly
2 | O=c1[nH]c(=O)[nH]c(=O)[nH]1 [CYA, S-triazine-2,4,6-trione] | – | – | – | – | – | – | – | – | – | – | – | – | – | – | – | – | – | – | – | – | solubility in water ([4]; 20° C.): approximately 2700 ppm; dissolving behaviour (in words) [6]: fairly tough to dissolve
3 | CCNc1nc(Cl)nc(NC(C)(C)C)n1 [terbuthylazine, 2-(tert-butylamino)-4-chloro-6-(ethylamino)-s-triazine] | – | – | – | – | – | – | – | – | – | – | – | – | – | – | – | – | – | – | – | – | solubility in water ([4]; 25° C.): 11.5 ppm; hydrolytic stability (in words) [5]: good hydrolytic stability; degradation half life ([5]; pH 5): 73 days; degradation half life ([5]; pH 9): 194 days
4 | O=[N+]([O-])C(Br)=Cc1ccco1 [BNEF, 2-(2-bromo-2-nitro)-ethenyl furan] | – | – | – | – | – | – | – | – | – | – | – | – | – | – | – | – | – | – | – | – | solubility in water ([4]; 25° C.): 300 ppm; decomposition half-life ([5]; pH 4, 50° C.): 2.33 h; decomposition half-life ([5]; pH 4, 60° C.): 1.77 h; decomposition half-life ([5]; pH 4, 70° C.): 0.817 h; decomposition half-life ([5]; pH 5, 25° C.): 71 h; decomposition half-life ([5]; pH 6, 25° C.): 37 h; decomposition half-life ([5]; pH 9, 25° C.): 6 h
5 | [Na+].[O-]Cl [NaOCl, sodium hypochlorite] | 5 Tubes (Out of 5) | 5 Tubes (Out of 5) | 5 Tubes (Out of 5) | 5 Tubes (Out of 5) | 5 Tubes (Out of 5) | 5 Tubes (Out of 5) | 3 Tubes (Out of 5) | 1 Tubes (Out of 5) | 0 Tubes (Out of 5) | 0 Tubes (Out of 5) | 0 Tubes (Out of 5) | 0 Tubes (Out of 5) | 5 Tubes (Out of 5) | 5 Tubes (Out of 5) | 5 Tubes (Out of 5) | 5 Tubes (Out of 5) | 5 Tubes (Out of 5) | 5 Tubes (Out of 5) | 5 Tubes (Out of 5) | 5 Tubes (Out of 5) | Number of Tubes Exhibiting Growth [2, 15]: 0 Tubes (Out of 5); Number of Tubes Exhibiting Growth [2, 16]: 0 Tubes (Out of 5); Number of Tubes Exhibiting Growth [2, 17]: 0 Tubes (Out of 5); Number of Tubes Exhibiting Growth [2, 18]: 0 Tubes (Out of 5); biocidal efficacy (in words) [3]: approximately the same
